Laboratory results taken from patent US20120014926A1, “Activation of Precursor Cells for Cell Therapy” (priority 2009, published 2012).

Columns and labels:
[1] = system: mice after surgical implementation of hindlimb ischemia; assay: Homing of injected GFP BMC to ischemic hindlimb muscle; type: in vivo, mouse; conditions: SDF-1 protein 100 ng injected into ischemic hindlimb muscle; treated and untreated cells
Protocol: SDF1 protein was also injected into the ischemic hindlimb muscle to enhance BMC homing. SDF-1 protein (100 ng) was injected into the ischemic hindlimb muscle of WT BL6 mice twice at consecutive days after the surgery. The hindlimb muscles were recovered 7 days after the cell injection, stained with DAPI for nucleus (light white), and examined for GFP cells (bright white, arrow pointed) incorporation under fluorescent microscopy. (A) untreated BMC, B) Treated BMC, C) Untreated BMC+SDF-1, D) Treated BMC+SDF-1. E) The incorporated GFP cells were quantified as cells per high power field (HPF). *P<0.05, and **P<0.01 versus all other groups (n=6).

[2] = system: BMC; assay: BMC migration towards SDF-1, modified Boyden chamber assay; type: cell-based, mouse; conditions: inhibitor added to upper chamber along with treated BMC; p<0.05
Protocol: BMC migration towards SDF-1 was determined using a modified Boyden chamber assay. BMC were pre-incubated with either PBS or the invented solution for 4 hours at 37 deg.C. and transferred to the upper chamber of inserts in a 24-well plate containing DMEM and 100 ng/ml SDF-1. Migrated cells were counted after 6 hrs incubation at 37° C. Inhibitors AMD3100, LY294002, L-NMMA, and anti-CXCR4 antibody were added to the upper chamber along with BMC.

Compound | effect of exogenous SDF-1 on homing of injected BMC [1] | mobility of the treated BMC on addition of inhibitor [2]
SDF-1: stromal cell derived factor-1, chemotactic cytokine, protein injected into ischemic hindlimb muscle | homed more efficiently | –
CNC(=N)NCCC[C@H](N)C(=O)O [L-NNMA] | – | significantly reduced
c1cc(CN2CCCNCCNCCCNCC2)ccc1CN1CCCNCCNCCCNCC1 [AMD3100] | – | significantly reduced
